Earlier results in patent US20110280834A1, “METHODS AND COMPOSITIONS FOR CARDIAC TISSUE REGENERATION” (priority 2009, published 2011).

Conditions: rat, in vivo, ip, 70 umol/kg

half-life: 2 h
Structure (SMILES): O=c1[nH]c(=O)n([C@H]2C[C@H](O)[C@@H](CO)O2)cc1Br [BrdU]
